Results: paper PMC12686454 (EMBO Molecular Medicine, 2025)
Structures can show the parent of a compound that is named as a salt.

Key:
[1] = molecular target: T1, enolase (AbEnolase) (Acinetobacter baumannii, UniProt A3M5Y1); assay: isothermal titration calorimetry ([…] °C, […] protein, […] ENOblock, single-site model, n = […]); type: binding
T1 construct: gene eno; wild-type enolase gene in pET-30a(+) with an N-terminal His6 tag, purified recombinant

[2] = system: T2, E. coli ATCC 25922; assay: microbe, parasite or virus in culture; design: Bacterial growth inhibition, OD600, dose-response in 384-well plates, AC50; settings: Escherichia coli, ATCC25922, 24 h
T2 construct: ATCC 25922
Description: (§1) EU-OPENSCREEN provided a subset of 2,464 bioactive compounds from the ECBL pilot library (EU-OPENSCREEN: European Chemical Biology Library - Pilot Library) as 10 mM stock solutions in 100% DMSO. The library was screened in duplicate at a final concentration of 100 μM per well (1% DMSO). The antibacterial single-concentration HTS and dose–response susceptibility assays were conducted in 384-well plates, with bacterial cell density measured by optical density at 600 nm (OD600). Compounds were distributed in duplicate on separate 384-well microtiter plates using an Echo 550® acoustic [compound left out] handler (Beckman Coulter™, Indianapolis, IN) and inoculated with bacteria to a final concentration of 10^6 CFU/mL, with a total assay volume of 25.25 μL. Plates were incubated with shaking for 24 h at 37 °C. Bacterial growth was measured by reading the OD600 using an EnVision™ microplate reader (Revvity, Waltham, MA). The activity of the compounds was expressed as the percentage of bacterial growth inhibition, and it was calculated using the following normalization: %Inhibition=100×1−(TfSample−TOSample)−(TfBlank−TOBlank)/(TfGrowth−TOGrowth)−(TfBlank−TOBlank) Where, T0 Sample is the absorbance of the strain growth in the presence of compound measured at time zero, Tf Sample is the absorbance of the strain growth in the presence of compound measured at final time, T0 Growth is the absorbance of the strain growth in the absence of compound measured at time zero, Tf Growth is the absorbance of the strain growth in the absence of compound measured at final time, T0 Blank is the absorbance of the broth medium (blank) measured at time zero, Tf Blank: the absorbance of the broth medium (blank) measured at final time; T0 is Time at 0 h and Tf is Time at 24 h. We developed and validated a high-throughput screen assay using 2464 bioactive compounds from the EU-OPENSCREEN pilot library, dispensed in 384-well plates at 100 μM final concentration, and the A. baumannii Ab ATCC 17978 and E. coli ATCC 25922 strains, as well as their respective MDR strains (Ab186 and MCR1^+) (Fig. 1A). We identified 33 compounds ([…] of the total compounds) with inhibitory activity of ≥70% against at least one or both MDR strains of Ab186 and E. coli MCR1^+. […] This compound was active against the Ab ATCC 17978 and E. coli ATCC 25922 strains, with AC50 values of 23.57 μM and 46.86 μM, respectively (Fig. 1C).

[3] = system: T3, A. baumannii Ab ATCC 17978; assay: microbe, parasite or virus in culture; design: species or system A. baumannii ATCC 17978; Bacterial growth inhibition, OD600, dose-response in 384-well plates, AC50; settings: Acinetobacter baumannii, ATCC17978, 24 h
T3 construct: ATCC 17978
Description: as §1

T1 sequence (A3M5Y1 whole entry): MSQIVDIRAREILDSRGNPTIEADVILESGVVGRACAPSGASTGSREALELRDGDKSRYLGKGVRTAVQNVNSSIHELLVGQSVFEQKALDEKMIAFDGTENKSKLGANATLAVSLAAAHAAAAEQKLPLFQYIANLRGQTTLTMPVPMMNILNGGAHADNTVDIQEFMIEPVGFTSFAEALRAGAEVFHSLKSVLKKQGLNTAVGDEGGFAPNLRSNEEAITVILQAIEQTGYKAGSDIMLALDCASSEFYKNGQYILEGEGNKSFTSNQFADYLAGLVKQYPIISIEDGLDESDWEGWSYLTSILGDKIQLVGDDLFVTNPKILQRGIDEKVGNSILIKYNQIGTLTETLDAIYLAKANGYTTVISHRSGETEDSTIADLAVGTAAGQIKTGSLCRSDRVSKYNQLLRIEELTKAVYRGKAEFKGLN

SMILES	Kd [1] [µM]	AC50 [2] [µM]	AC50 [3] [µM]
NCCOCCOCCNC(=O)Cc1ccc(Nc2nc(NCc3ccc(F)cc3)nc(NCC3CCCCC3)n2)cc1 [ENOblock]	2.9 ± 0.78	–	–
O=[N+]([O-])c1ccc(Sc2cccc[n+]2[O-])c2nonc12 [EOS100077, NSC228155]	–	19.1	32
C[C@H]1CO[C@@H]2Cn3cc(C(=O)NCc4ccc(F)cc4F)c(=O)c(O)c3C(=O)N12 [EOS100194, CABOTEGRAVIR]	–	–	113
COc1cc(/C=C/C(O)=C/C(=O)/C=C/c2ccc(O)cc2)ccc1O [EOS100220, DEMETHOXYCURCUMIN]	–	56.1	51
NC(=S)N/N=C/c1ncccc1N [EOS100248, TRIAPINE]	–	101	65.7
Cc1nc2c(=O)n(C)c(=O)nc-2n(C)n1 [EOS100293, 3-METHYLTOXOFLAVIN]	–	9.33	14.3
Oc1c(Cl)cc(Cl)c(Cl)c1Cc1c(O)c(Cl)cc(Cl)c1Cl [EOS100333, HEXACHLOROPHENE]	–	37.3	4.77
Oc1c(I)cc(I)c2cccnc12 [EOS100343, DIIODOHYDROXYQUINOLINE]	–	55.1	62.8
Cc1c2ccncc2c(C)c2c1[nH]c1ccccc12 [EOS100555, ELLIPTICINE]	–	64	48.9
Cc1ccc2c(Cl)cc(Cl)c(O)c2n1 [EOS100722, CHLORQUINALDOL]	–	20.4	42.2
CC(C)c1cccc(=O)c(O)c1 [EOS100813, HINOKITIOL]	–	48.3	41
CCN1CCN(C(c2ccc(C(F)(F)F)cc2)c2ccc3cccnc3c2O)CC1 (centres unmarked) [EOS100820, ML311]	–	82.9	32.7
Oc1cccc2cccnc12 [EOS100874, OXYQUINOLINE]	–	173	71.9
COc1ccc(Cc2cnc(N)nc2N)cc1OC [EOS100884, DIAVERIDINE]	–	1.26	–
C=C1c2cccc(O)c2C(=O)C2=C(O)[C@]3(O)C(=O)C(C(N)=O)=C(O)[C@@H](N(C)C)[C@@H]3[C@@H](O)[C@H]12 [EOS100925, METHACYCLINE HYDROCHLORIDE]	–	95	–
Oc1c(Cl)cc(Cl)c2cccnc12 [EOS100951, CHLOROXINE]	–	10.1	7.47

SMILES	Kd [1] [µM]	AC50 [2] [µM]	AC50 [3] [µM]
NCCOCCOCCNC(=O)Cc1ccc(Nc2nc(NCc3ccc(F)cc3)nc(NCC3CCCCC3)n2)cc1 [EOS100979, AP-III-A4(ENOBLOCK)]	–	46.9	23.6
Cn1cc(C2=C(c3cn(CCCSC(=N)N)c4ccccc34)C(=O)NC2=O)c2ccccc21 [EOS101001, BISINDOLYLMALEIMIDE IX]	–	109	48.9
CC(C)(Cc1ccc2ccccc2c1)NC[C@@H](O)COc1cccc(Cl)c1C#N [EOS101044, NPS-2143]	–	47.6	27.2
c1ccc2c(c1)[I+]c1ccccc1-2 [EOS101209, DIPHENYLENEIODONIUM]	–	2.02	3.09
CC(C)C[C@H](NC(=O)[C@H](CCc1ccccc1)NC(=O)CN1CCOCC1)C(=O)N[C@@H](Cc1ccccc1)C(=O)N[C@@H](CC(C)C)C(=O)[C@@]1(C)CO1 [EOS101232, CARFILZOMIB]	–	31.4	–
C[C@@H]1CCO[C@H]2Cn3cc(C(=O)NCc4ccc(F)cc4F)c(=O)c(O)c3C(=O)N12 [EOS101330, DOLUTEGRAVIR]	–	–	21.9
CCc1nc(N)nc(N)c1-c1ccc(Cl)cc1 [EOS101458, PYRIMETHAMINE]	–	129	–
COc1cc(NCc2ccc3nc(N)nc(N)c3c2C)cc(OC)c1OC [EOS101467, TRIMETREXATE]	–	1.99	24.1
O=S(=O)(NCCNC/C=C/c1ccc(Br)cc1)c1cccc2cnccc12 [EOS101763, H-89 DIHYDROCHLORIDE]	–	65.9	–
Oc1c(Cl)cc(Cl)cc1Sc1cc(Cl)cc(Cl)c1O [EOS101771, BITHIONOL]	–	42.9	14.6
C/C(=N\N=C(N)N)c1cc(NC(=O)CCCCCCCCC(=O)Nc2cc(/C(C)=N/N=C(N)N)cc(/C(C)=N/N=C(N)N)c2)cc(/C(C)=N/N=C(N)N)c1 [EOS101827, SEMAPIMOD]	–	7.07	23.2
[O-][n+]1ccccc1S [EOS101921, PYRITHIONE]	–	17.8	33.9
CCN1/C(=C/c2ccc3ccccc3[n+]2CC)C=Cc2ccccc21 [EOS102018, DECYNIUM 22]	–	92.9	54.3
CN(C)c1ccc(C(=C2C=CC(=[N+](C)C)C=C2)c2ccc(N(C)C)cc2)cc1 [EOS102093, GENTIAN VIOLET]	–	–	32.7
c1ccc(-c2cccc(-c3ccccn3)n2)nc1 [EOS102213, TERPYRIDINE]	–	52.3	13.1
